Experimental data as given in US20110104159A1, “COMPOSITIONS AND METHODS FOR TREATING, CONTROLLING, REDUCING, AMELIORATING, OR PREVENTING ALLERGY” (priority 2006, published 2011).

System: eosinophil peroxidase
Experiment: Eosinophil peroxidase assay in guinea pig conjunctiva
Assay type: in vivo
Conditions: 0.4% eye drops; 24 h after antigen challenge
Experimental: Male Dunkin-Hartley guinea pigs were actively immunized by i.p. injection of 200 μg OVA in 2 ml saline with 40 mg aluminum hydroxide (positive control) or saline alone (negative control), as previously reported. […] Negative controls received saline alone.
Conjunctival clinical symptoms were rated blind on both eyes using the following scale: 0, no symptoms; 1, slight conjunctival redness with or without tears; 2, mild conjunctival redness with tears and mild chemosis; 3, mild conjunctival redness with tears and moderate chemosis; 4, severe conjunctival redness with tears and partial lid eversion; 5, severe conjunctival redness with tears and lids more than half closed. […] The number of eosinophils in each field was counted under light microscopy (×500 magnification). In the other sample eosinophil peroxidase activity was measured.
Eosinophil peroxidase was assayed as previously reported in conjunctival samples obtained as above described. […] Absorbance was measured using a spectrophotometer (JASCO V-530, Jasco, UK) at 490 nm. […] Eosinophil peroxidase activity was measured according to the method of Strath et al., which is based on the oxidation of o-phenylenediamine by eosinophil peroxidase in the presence of hydrogen peroxide. One unit corresponds to 1 mmol of hydrogen peroxide decomposed for […], and the results were expressed as eosinophil peroxidase levels (mU of enzyme/mg wet tissue).

## Cc1ccc2c(NC[C@](O)(CC(C)(C)c3cc(F)cc4c3OCC4)C(F)(F)F)cccc2n1 [BOL-303242-X, (R)-1,1,1-Trifluoro-4-(5-fluoro-2,3-dihydrobenzofuran-7-yl)-4-methyl-2-{[(2-methyl-5-quinolyl)amino]methyl}pentan-2-ol]
  Conjunctival eosinophil peroxidase activity: noteworthy reduction
